According to US7429482B2, “Screening tools for discovery of novel anabolic agents” (United States of America as represented by the Department …, priority 2005, dated 2008):

Key:
junB = test: Chronic denervation: junB mRNA in gastrocnemius (qPCR); assay type: in vivo, rat
Method: Male Wistar rats weighing 200-250 gm (Taconic Farms, Germantown, N.Y.) were provided food and water ad libitum and were housed in a temperature and humidity controlled environment providing a 12:12 hour day-night cycle. For surgical procedures, animals were anesthetized with ketamine/xylazine. The left sciatic nerve was exposed by blunt dissection, and a 1 to 2 mm piece of this nerve was excised just below the level of the femoral head. A sham surgery was performed on the right hind limb in which the sciatic nerve was exposed but was not transected. Twenty eight days later, animals were anesthetized, and Alzet pumps were implanted subcutaneously on the back. […] Testosterone levels after replacement were approximately 15 nM, a high-normal range for rats of this age. […]
Total RNA was extracted from skeletal muscle (20 mg) by homogenization in guanidine thiocyanate using a Polytron followed by extraction of total RNA with phenol-chloroform as described by (Chomczynski and Sacchi, Anal Biochem 162: 156-159, 1987). […] Total RNA was eluted and quantified by absorbance at 260 nm. […] Levels of gene expression in the denervated muscle were expressed as fold induction relative to muscle from the sham-denervated leg of animals administered vehicle. […] Fold-induction was determined using the 2^−ΔΔCt method, using expression of 18S RNA as the normalization control. […]

MAFbx mRNA = MAFbx mRNA half-life after actinomycin in C2C12.AR cells; assay type: cell-based, mouse
Method: (A) Rats were administered test agents as indicated in the figure for 7-days, at which time animals were sacrificed and MAFbx expression was determined in gastrocnemius muscles by qPCR. Data are mean values±SEM for at least 8 animals. * p<0.05 vs vehicle, t-test. (B) AR6 cells were seeded into 6-well plates and incubated overnight in growth medium. Medium was replaced with DMEM containing 2% horse serum followed by incubation for an additional 48 hours. Hormones or vehicle (EtOH) were added to the medium and cells were incubated overnight, at which time MAFbx mRNA levels were determined by qPCR and expressed as fold-induction versus levels in cells incubated with EtOH. Data are mean values±SEM for three determinations each performed in triplicate. * p<0.05 vs. EtOH (ANOVA). (C) Effect of testosterone on MAFbx mRNA half-life. C2C12.AR cells were incubated overnight in growth medium supplemented with testosterone or vehicle (EtOH). […] Levels of MAFbx mRNA are expressed as a percentage of those at time zero. […]
RNA was quantified by absorbance at 260 nm. […] Relative changes in expression were determined using the 2^−ΔΔCt method. Taqman Assay on Demand probes (Applied Biosystems) were used for all assays except rat 18S RNA, which was quantified using the following Assay on Demand Probes: Forward: […] […]

In the case of `C[C@]12CC[C@H]3[C@@H](CCC4=CC(=O)CC[C@@H]43)[C@@H]1CC[C@@H]2O` [nandrolone], the junB expression (junB; denervated muscle, 3 to 28 days after starting infusion) was “tended to reduce” and the junB expression (junB; sham-denervated muscle) was “no effect”.

With `C[C@]12CC[C@H]3[C@@H](CCC4=CC(=O)CC[C@@]43C)[C@@H]1CC[C@@H]2O` [testosterone] the “half-life of MAFbx mRNA versus absence of testosterone” value (MAFbx mRNA) was “not significantly different”.
